Test results as given in patent US20240140931A1, “TRICYCLIC COMPOUNDS AND USES THEREOF” (HUTCHMED LIMITED, priority 2021, published 2024).

Experiments:
[1] = target: Human full-length SHP2 recombinant protein (Homo sapiens (Human), UniProt Q06124); assay: Assay of full-length SHP2 phosphatase activity; type: biochemical; conditions: DiFMUP substrate, with activating peptide
Summary of the method: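 Full-length human SHP2 preincubated 30 min at RT with activating peptide and compound (1% DMSO final). DiFMUP substrate added, reaction 60 min at 25 °C in dark. Fluorescence at ex 355/em 460 nm; IC50 from 4-parameter fit against enzyme-free and vehicle controls.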

[2] = test system: pERK1/2 (Thr202/Tyr204) in Miapaca2 cells; assay: Assay of intracellular pERK1/2 (Thr202/Tyr204) phosphorylation; type: cell-based; conditions: pERK1/2 (Thr202/Tyr204) HTRF
Summary of the method: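 Miapaca2 cells treated 2 h at 37 °C with compound (3-fold series; final DMSO 0.5%), then lysed 1 h. pERK1/2 (Thr202/Tyr204) detected by HTRF (665/615 nm ratio) after 2 h at 25 °C; normalized to cell-free lysis buffer and DMSO-treated cell controls; IC50 by four-parameter fit.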

Human full-length SHP2 recombinant protein, sequence (Q06124 whole entry): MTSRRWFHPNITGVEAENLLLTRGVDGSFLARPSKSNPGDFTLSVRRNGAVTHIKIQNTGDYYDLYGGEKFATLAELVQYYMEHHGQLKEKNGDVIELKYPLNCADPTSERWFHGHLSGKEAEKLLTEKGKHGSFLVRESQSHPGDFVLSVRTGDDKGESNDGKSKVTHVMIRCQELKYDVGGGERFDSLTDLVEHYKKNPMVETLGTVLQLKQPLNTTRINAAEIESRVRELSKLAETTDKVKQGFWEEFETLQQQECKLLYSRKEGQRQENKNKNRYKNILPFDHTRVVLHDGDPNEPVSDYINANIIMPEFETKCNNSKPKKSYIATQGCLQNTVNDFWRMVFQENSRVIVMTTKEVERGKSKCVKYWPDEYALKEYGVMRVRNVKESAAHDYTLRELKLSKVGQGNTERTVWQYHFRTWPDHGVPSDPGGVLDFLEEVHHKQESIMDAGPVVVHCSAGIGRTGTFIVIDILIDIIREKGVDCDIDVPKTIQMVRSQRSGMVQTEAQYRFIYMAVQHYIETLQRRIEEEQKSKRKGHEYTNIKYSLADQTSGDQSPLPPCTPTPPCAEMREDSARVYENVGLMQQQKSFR

SMILES | IC50 [1] | IC50 ([2]; Homo sapiens, MIA PaCa-2, 2 h) | IC50 ([2]; 2 hours)
C#Cc1ccc2c(c1)[C@@H](N)C1(CCN(c3cc(=O)n(-c4c(F)cccc4Cl)c(C)n3)CC1)C2 [Compound 68] | 130 nM | 510 nM | 
C#Cc1ccc2c(c1)[C@@H](N)C1(CCN(c3cc(=O)n(-c4ccc(F)c(Cl)c4Cl)c(C)n3)CC1)C2 [Compound 69] | 5 nM |  | 66 nM
Cc1nc(N2CCC3(CC2)Cc2ccc(C#CCN(C)C)cc2[C@H]3N)cc(=O)n1-c1ccc(F)c(Cl)c1Cl [Compound 70] | 2 nM | 141 nM | 
CN(C)CC#Cc1ccc2c(c1)[C@@H](N)C1(CCN(c3ncc(Sc4ccnc(N)c4Cl)c4nccn34)CC1)C2 [Compound 71] | 1 nM | 22 nM | 
CN(C)CC#Cc1ccc2c(c1)C(=O)C1(CCN(c3ncc(Sc4ccnc(N)c4Cl)c4nccn34)CC1)C2 [Compound 72] | 978 nM | > 1000 nM | 
C#Cc1ccc2c(c1)[C@@H](N)C1(CCN(c3cc(=O)n(-c4cc(Cl)ccc4Cl)c(C)n3)CC1)C2 [Compound 73] | 253 nM | > 1000 nM | 
Cc1nc(N2CCC3(CC2)Cc2ccc(C#CCN(C)C)cc2[C@H]3N)cc(=O)n1-c1cccc(F)c1Cl [Compound 74] | 4 nM | 223 nM | 
Cc1nc(N2CCC3(CC2)Cc2ccc(C#CCN(C)C)cc2[C@H]3N)n2ccnc2c1Sc1ccnc(N)c1Cl [Compound 75] | 2 nM | 46 nM | 
Nc1nccc(Sc2cnc(N3CCC4(CC3)Cc3ccc(C#CCO)cc3[C@H]4N)n3ccnc23)c1Cl [Compound 76] | 2 nM | 4 nM | 
C#Cc1ccc2c(c1)[C@@H](N)C1(CCN(c3cc(=O)n(-c4ccc(F)c(OC)c4F)c(C)n3)CC1)C2 [Compound 78] | 3 nM |  | 43 nM
CC#Cc1ccc2c(c1)[C@@H](N)C1(CCN(c3cc(=O)n(-c4cccc(Cl)c4Cl)c(C)n3)CC1)C2 [Compound 79] | 1 nM | 60 nM | 
C#Cc1cccc2c1CC1(CCN(c3cc(=O)n(-c4cccc(Cl)c4Cl)c(C)n3)CC1)[C@@H]2N [Compound 80] | 4 nM | 125 nM | 
COCC#Cc1ccc2c(c1)[C@@H](N)C1(CCN(c3cc(=O)n(-c4ccc(F)c(OC)c4F)c(C)n3)CC1)C2 [Compound 82] | 2 nM | 43 nM | 
COc1c(F)ccc(-n2c(C)nc(N3CCC4(CC3)Cc3ccc(C#CCN(C)C)cc3[C@H]4N)cc2=O)c1F [Compound 83] | 1 nM | 57 nM | 
Cc1nc(N2CCC3(CC2)Cc2ccc(C#CCN(C)C)cc2[C@H]3N)cc(=O)n1-c1cc(Cl)ccc1Cl [Compound 84] | 67 nM | > 1000 nM | 
Cc1nc(N2CCC3(CC2)Cc2ccc(C#CCO)cc2[C@H]3N)cc(=O)n1-c1cc(Cl)ccc1Cl [Compound 85] | 50 nM | 785 nM | 
COCC#Cc1ccc2c(c1)[C@@H](N)C1(CCN(c3cnc(Sc4ccnc(N)c4Cl)c(N)n3)CC1)C2 [Compound 86] | 2 nM | 6 nM | 
COCC#Cc1ccc2c(c1)[C@@H](N)C1(CCN(c3ncc(Sc4ccnc(N)n4)nc3CO)CC1)C2 [Compound 87, (S)-(3-(1-amino-6-(3-methoxyprop-1-yn-1-yl)-1,3-dihydrospiro[indene-2,4′-piperidin]-1′-yl)-6-((2-aminopyrimidin-4-yl)thio)pyrazin-2-yl)methanol] | 1 nM | 2 nM | 
C#Cc1ccc2c(c1)[C@@H](N)C1(CCN(c3cc(=O)n(-c4cccc(OC)c4Cl)c(C)n3)CC1)C2 [Compound 90] | 1.1 nM |  | 53 nM
CNCC#Cc1ccc2c(c1)[C@@H](N)C1(CCN(c3ncc(Sc4ccnc(N)c4Cl)c4nccn34)CC1)C2 [Compound 91] | 0.7 nM | 17 nM | 
C#Cc1ccc2c(c1)[C@@H](N)C1(CCN(c3nc(C)n(-c4ccc(OCC)cc4Cl)c(=O)c3C)CC1)C2 [Compound 92] | 11 nM | 117 nM | 
COCC#Cc1ccc2c(c1)[C@@H](N)C1(CCN(c3cc(=O)n(-c4ccc(C#N)cc4Cl)c(C)n3)CC1)C2 [Compound 93] | 16 nM | 301 nM | 
C#Cc1ccc2c(c1)[C@@H](N)C1(CCN(c3cc(=O)n(-c4ccc(C#N)cc4Cl)c(C)n3)CC1)C2 [Compound 94] | 7 nM | 155 nM | 
C#Cc1ccc2c(c1)[C@@H](N)C1(CCN(c3cnc(Sc4ccnc(N)c4Cl)c(N)n3)CC1)C2 [Compound 95] | 3 nM | 2 nM | 
COCC#Cc1cccc2c1CC1(CCN(c3cc(=O)n(-c4cccc(Cl)c4Cl)c(C)n3)CC1)[C@@H]2N [Compound 96] | 5 nM | 55 nM | 
COCC#Cc1cccc2c1CC1(CCN(c3ncc(Sc4ccnc(N)c4Cl)c4nccn34)CC1)[C@@H]2N [Compound 97] | 2 nM | 11 nM | 
COCCSc1ccc2c(c1)[C@@H](N)C1(CCN(c3ncc(Sc4ccnc(N)n4)c4nccn34)CC1)C2 [Compound 98] | 3 nM | 20 nM | 

SMILES | IC50 [1] | IC50 ([2]; Homo sapiens, MIA PaCa-2, 2 h) | IC50 ([2]; 2 hours)
COCCSc1ccc2c(c1)[C@@H](N)C1(CCN(c3cc(=O)n(-c4cccc(Cl)c4Cl)c(C)n3)CC1)C2 [Compound 99] | 2 nM | 40 nM | 
COCC#Cc1ccc2c(c1)[C@@H](N)C1(CCN(c3ncc(Sc4ccnc(N)n4)c4nccn34)CC1)C2 [Compound 100] | 2 nM | 12 nM | 
COCCSc1ccc2c(c1)[C@@H](N)C1(CCN(c3cc(=O)n(-c4ccc(F)c(OC)c4F)c(C)n3)CC1)C2 [Compound 101] | 12 nM | 96 nM | 
COCC#Cc1ccc2c(c1)[C@@H](N)C1(CCN(c3cc(=O)n(-c4cccc(OC)c4Cl)c(C)n3)CC1)C2 [Compound 104] | 4 nM | 40 nM | 
C#Cc1ccc2c(c1)[C@@H](N)C1(CCN(c3cc(=O)n(-c4cccc(C(F)(F)F)c4Cl)c(C)n3)CC1)C2 [Compound 106] | 9 nM |  | 84 nM
C#Cc1ccc2c(c1)[C@@H](N)C1(CCN(c3cc(=O)n(-c4ccccc4C(F)(F)F)c(C)n3)CC1)C2 [Compound 107] | 739 nM | > 1000 nM | 
COCC#Cc1ccc2c(c1)[C@@H](N)C1(CCN(c3cnc(Sc4ccnc(N)n4)c(N)n3)CC1)C2 [Compound 112] | 2 nM | 6 nM | 
CCOCC#Cc1ccc2c(c1)[C@@H](N)C1(CCN(c3cc(=O)n(-c4cccc(Cl)c4Cl)c(C)n3)CC1)C2 [Compound 115] | 2 nM | 26 nM | 
C#Cc1ccc2c(c1)[C@@H](N)C1(CCN(c3ncc(Sc4ccnc(N)n4)nc3CO)CC1)C2 [Compound 116] | 0.5 nM | 1 nM | 
COCC#Cc1ccc2c(c1)[C@@H](N)C1(CCN(c3nc(C)c(Sc4ccnc(N)n4)c4nccn34)CC1)C2 [Compound 117] | 2 nM | 24 nM | 
COCC#Cc1ccc2c(c1)[C@@H](N)C1(CCN(c3ncc(-c4cn(C)c5ncccc45)c4nccn34)CC1)C2 [Compound 120] | 45 nM | 385 nM | 
C#Cc1ccc2c(c1)[C@@H](N)C1(CCN(c3cc(=O)n(-c4cccc(Cl)c4Cl)c(C(F)(F)F)n3)CC1)C2 [Compound 121] | > 1000 nM | > 1000 nM | 
NC(=O)C#Cc1ccc2c(c1)[C@@H](N)C1(CCN(c3ncc(Sc4ccnc(N)n4)nc3CO)CC1)C2 [Compound 122] | 0.6 nM | 7 nM | 
NC(=O)C#Cc1ccc2c(c1)[C@@H](N)C1(CCN(c3ncc(Sc4ccnc(N)c4Cl)nc3CO)CC1)C2 [Compound 123] | 0.6 nM | 4 nM | 
C#Cc1ccc2c(c1)[C@@H](N)C1(CCN(c3cnc(Sc4ccnc(N)n4)c(N)n3)CC1)C2 [Compound 126] | 2 nM | 42 nM | 
Cc1nc(N2CCC3(CC2)Cc2ccc(C#CC(N)=O)cc2[C@H]3N)cc(=O)n1-c1cccc(Cl)c1Cl [Compound 127] | 0.6 nM | 13 nM | 
NC(=O)C#Cc1ccc2c(c1)[C@@H](N)C1(CCN(c3ncc(Sc4ccnc(N)c4Cl)c4nccn34)CC1)C2 [Compound 128] | 0.9 nM | 15 nM | 
NC(=O)C#Cc1ccc2c(c1)[C@@H](N)C1(CCN(c3cnc(Sc4ccnc(N)c4Cl)c(N)n3)CC1)C2 [Compound 129] | 0.6 nM | 3 nM | 
CC#Cc1ccc2c(c1)[C@@H](N)C1(CCN(c3cnc(Sc4ccnc(N)c4Cl)c(N)n3)CC1)C2 [Compound 131] | 3 nM | 4 nM | 
COCC#Cc1ccc2c(c1)[C@@H](N)C1(CCN(c3ncc(Sc4ccnc(C)n4)c4nccn34)CC1)C2 [Compound 132] | 3 nM | 9 nM | 
C#Cc1ccc2c(c1)[C@@H](N)C1(CCN(c3cc(=O)n(-c4ccccc4SC)c(C)n3)CC1)C2 [Compound 133] | 29 nM | 147 nM | 
CC#Cc1ccc2c(c1)[C@@H](N)C1(CCN(c3cnc(Sc4ccnc(N)n4)c(N)n3)CC1)C2 [Compound 134] | 1.4 nM | 5 nM | 
C#Cc1cc(F)c2c(c1)[C@@H](N)C1(CCN(c3nc(C)n(-c4cccc(Cl)c4Cl)c(=O)c3F)CC1)C2 [Compound 167] | 25 nM | 124 nM | 
COCC#Cc1ccc2c(c1)[C@@H](N)C1(CCN(c3nc(C)n(-c4cccc(Cl)c4Cl)c(=O)c3F)CC1)C2 [Compound 169] | 6 nM | 125 nM | 
C#Cc1ccc2c(c1)[C@@H](N)C1(CCN(c3nc(C)c(Sc4ccnc(N)c4Cl)n4cncc34)CC1)C2 [Compound 180] | 13 nM | 251 nM | 
C#Cc1ccc2c(c1)[C@@H](N)C1(CCN(c3cc(=O)n(-c4ccc(C#N)c(O)c4F)c(C)n3)CC1)C2 [Compound 185] | 14 nM | > 1000 nM | 
